Each compound was assayed against Human Factor D (Homo sapiens (Human), UniProt P00746) (assay: Human Factor D assay). Conditions: Human Factor D 80 nM, substrate Z-L-Lys-SBzl, A405; read-out: IC50 (Stars).
Assay type: biochemical
Outline: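 Serum-purified human Factor D (80 nM final) preincubated 5 min at room temperature with compound in 50 mM Tris, 1M NaCl, pH 7.5. Reaction started with Z-L-Lys-SBzI and DTNB (100 μM each); A405 read every 30 s for 30 min. IC50 from nonlinear regression of reaction rates versus compound concentration.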

Sequence of Human Factor D (P00746 26-253): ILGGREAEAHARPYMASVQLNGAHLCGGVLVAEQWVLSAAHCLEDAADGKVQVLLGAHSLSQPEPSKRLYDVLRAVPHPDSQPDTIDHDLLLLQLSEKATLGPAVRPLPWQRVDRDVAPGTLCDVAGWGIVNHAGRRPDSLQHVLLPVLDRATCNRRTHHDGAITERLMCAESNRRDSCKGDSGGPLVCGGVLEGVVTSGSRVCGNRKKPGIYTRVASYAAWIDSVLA

Question: For `CC(=O)c1nn2c3c(cc(NCC(C)C)cc13)CCCCCCC(=O)NC[C@@]13C[C@@H](C(=O)Nc4nc(C(F)(F)F)ccc4C)N(C(=O)C2)[C@@H]1C3` [Compound 24, (4^1R,4^3S,4^5R)-1^3-acetyl-15-(isobutylamino)-N-(3-methyl-6-(trifluoromethyl)pyridin-2-yl)-3,7-dioxo-1^1H-4^2,6-diaza-1(1,7)-indazola-4(2,5)-bicyclo[3.1.0]hexanacyclotridecaphane-4^3-carboxamide], which IC50 is on record?
Answer: The IC50 was < 1000 nM.

Question: With `CC(=O)c1nn2c3c(cc(NC(C)C)cc13)CCCCCCC(=O)NC[C@@]13C[C@@H](C(=O)Nc4nc(C(F)(F)F)ccc4C)N(C(=O)C2)[C@@H]1C3` [Compound 25, (4^1R,4^3S,4^5R)-1^3-acetyl-1^5-(isopropylamino)-N-(3-methyl-6-(trifluoromethyl)pyridin-2-yl)-3,7-dioxo-1^1H-4^2,6-diaza-1(1,7)-indazola-4(2,5)-bicyclo[3.1.0]hexanacyclotridecaphane-4^3-carboxamide] as the compound, how does the IC50 read?
Answer: The IC50 was < 1000 nM.

Question: How did the IC50 turn out when `CC(=O)c1nn2c3c(cc(-c4cnc(C)nc4)cc13)CCCCC(C)(C)CC(=O)NC[C@@]13C[C@@H](C(=O)Nc4nc(C(F)(F)F)ccc4C)N(C(=O)C2)[C@@H]1C3` [Compound 26, (4^1R,4^3S,4^5R)-1^3-acetyl-9,9-dimethyl-N-(3-methyl-6-(trifluoromethyl)pyridin-2-yl)-15-(2-methylpyrimidin-5-yl)-3,7-dioxo-1^1H-4^2,6-diaza-1(1,7)-indazola-4(2,5)-bicyclo[3.1.0]hexanacyclotridecaphane-4^3-carboxamide] was run?
Answer: Its IC50 is < 1000 nM.

Question: With `CNc1cc2c3c(c1)c(C(C)=O)nn3CC(=O)N1[C@H](C(=O)Nc3nc(C(F)(F)F)ccc3C)C[C@@]3(CNC(=O)CCCCCC2)C[C@@H]13` [Compound 27, (4^1R,4^3S,4^5R)-1^3-acetyl-N-(3-methyl-6-(trifluoromethyl)pyridin-2-yl)-1^5-(methylamino)-3,7-dioxo-1^1H-4^2,6-diaza-1(1,7)-indazola-4(2,5)-bicyclo[3.1.0]hexanacyclotridecaphane-4^3-carboxamide] as the compound, how does the IC50 read?
Answer: The IC50 was < 1000 nM.

Question: How did the IC50 turn out when `CC(=O)c1nn2c3c(cc(CC(C)C)cc13)CCCCCCC(=O)NC[C@@]13C[C@@H](C(=O)Nc4nc(C(F)(F)F)ccc4C)N(C(=O)C2)[C@@H]1C3` [Compound 28, (4^1R,4^3S,4^5R)-1^3-acetyl-1^5-isobutyl-N-(3-methyl-6-(trifluoromethyl)pyridin-2-yl)-3,7-dioxo-1^1H-4^2,6-diaza-1(1,7)-indazola-4(2,5)-bicyclo[3.1.0]hexanacyclotridecaphane-4^3-carboxamide] was run?
Answer: The IC50 was < 1000 nM.

Question: How did the IC50 turn out when `CC(=O)c1nn2c3c(cc(-c4cnc(C)nc4)cc13)CCCCCCC(=O)NC[C@@]13C[C@@H](C(=O)NC(C)[C@H]4CC4(Cl)Cl)N(C(=O)C2)[C@@H]1C3` (stereo partly drawn) [Compound 29, (4^1R,4^3S,4^5R)-1^3-acetyl-N-((R)-1-((R)-2,2-dichlorocyclopropyl)ethyl)-1^5-(2-methylpyrimidin-5-yl)-3,7-dioxo-1^1H-4^2,6-diaza-1(1,7)-indazola-4(2,5)-bicyclo[3.1.0]hexanacyclotridecaphane-4^3-carboxamide] was run?
Answer: The IC50 was < 1000 nM.

Question: Which IC50 does the source give for `CC(=O)c1nn2c3c(cc(-c4cnc(C)nc4)cc13)CCCCCCC(=O)NC[C@@]13C[C@@H](C(=O)N[C@@H](C)[C@H]4CC4(Cl)Cl)N(C(=O)C2)[C@@H]1C3` [Compound 30, (4^1R,4^3S,4^5R)-1^3-acetyl-N-((S)-1-((R)-2,2-dichlorocyclopropyl)ethyl)-1^5-(2-methylpyrimidin-5-yl)-3,7-dioxo-1^1H-4^2,6-diaza-1(1,7)-indazola-4(2,5)-bicyclo[3.1.0]hexanacyclotridecaphane-4^3-carboxamide] here?
Answer: Its IC50 is < 1000 nM.

Question: For `CC(=O)c1nn2c3c(cc(-c4cnc(C)nc4)cc13)CCCC[C@H](C)CC(=O)NC[C@@]13C[C@@H](C(=O)Nc4nc(C(F)(F)F)ccc4C)N(C(=O)C2)[C@@H]1C3` [Compound 31, (4^1R,4^3S,4^5R,9S)-1^3-acetyl-9-methyl-N-(3-methyl-6-(trifluoromethyl)pyridin-2-yl)-1^5-(2-methylpyrimidin-5-yl)-3,7-dioxo-1^1H-4^2,6-diaza-1(1,7)-indazola-4(2,5)-bicyclo[3.1.0]hexanacyclotridecaphane-4^3-carboxamide], which IC50 is on record?
Answer: The IC50 was < 1000 nM.

Source: patent publication US11814391B2, “Macrocyclic compounds for the treatment of medical disorders” (Achillion Pharmaceuticals, Inc., priority 2018, dated 2023)
